In publication PMC9585897 (Peptides, 2022):
“Also recorded” adds a separate entry of the source. Non-standard residues stand in square brackets, D forms with d. Residues, ends and D or L forms follow the SMILES beside them. Ahx = NCCCCCC(=O)O

Assays:
[1] = test system: rCoV2-RBD (His-Spike S1 Protein, 13–685 aa); format: binding, SARS-CoV-2
[2] = target: SARS-CoV-2 Spike-ACE2 interaction (Severe acute respiratory syndrome coronavirus 2, UniProt P0DTC2); assay: ELISA, SARS-CoV-2 Spike-ACE2 Interaction Inhibitor Screening Assay Kit; format: biochemical

Compound | Binding of CoV2-RBD, sliding window array (in words) [1] | IC50 [2] [nM] | Competition with ACE2 for binding to CoV2-RBD (in words) ([2]; approximately 13.48 μM of ACE2, ELISA) | Inhibition of the Spike-ACE2 interaction (in words) ([2]; competitive ELISA, BP19 1 to 128 μM in triplicates)
SLVAVTAAQSTIEEQAKTFLDKFN [9 ^N] | bound the CoV2-RBD the strongest; also recorded: bound the CoV2-RBD with the greatest intensity | – | – | –
CC[C@H](C)[C@H](NC(=O)[C@H](Cc1ccccc1)NC(=O)[C@H](CCCCN)NC(=O)[C@H](CC(=O)O)NC(=O)[C@H](CC(C)C)NC(=O)[C@H](Cc1ccccc1)NC(=O)[C@@H](NC(=O)[C@H](CCCCN)NC(=O)[C@H](C)NC(=O)[C@H](CCC(N)=O)NC(=O)[C@H](CCC(=O)O)NC(=O)[C@H](CCC(=O)O)NC(=O)[C@@H](NC(=O)[C@@H](NC(=O)[C@H](CO)NC(=O)[C@H](CCC(N)=O)NC(=O)[C@H](C)NC(=O)[C@H](C)NC(=O)[C@@H](NC(=O)[C@@H](NC(=O)[C@H](C)NC(=O)[C@@H](NC(=O)[C@H](CC(C)C)NC(=O)[C@@H](N)CO)C(C)C)C(C)C)[C@@H](C)O)[C@@H](C)O)[C@@H](C)CC)[C@@H](C)O)C(=O)NCCCCCC(=O)N[C@@H](Cc1c[nH]c2ccccc12)C(N)=O [BP19] (H-SLVAVTAAQSTIEEQAKTFLDKFI[Ahx]W-NH2; N-terminus assumed) | – | 2080 ± 380 | able to outcompete the natural ACE2 at lower than equimolar concentrations; also recorded: outcompeted 13.48 μM of ACE2 for binding to the CoV2-RBD | dose-responsive; also recorded: inhibitory of the Spike-ACE2 interaction in vitro
